Results on 13 compounds are retold here after PubChem BioAssay (NCI).

Assay in all cases: growth of human tumour cells (NCI), 48 h
Test [1] relates to HS 578T breast.
The subject of test [2] is IGROV1 ovarian.
Test [3] deals with M14 melanoma.
Test [4] concerns MDA-MB-435.
For test [5], the system named is NCI/ADR-RES ovarian.
Test [6] concerns OVCAR-5 ovarian.
For test [7], the system named is SNB-75 CNS.
In test [8] the test system is TK-10 renal.
In test [9] the test system is UACC-62 melanoma.
The subject of test [10] is UO-31 renal.

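All cell lines were grown in 96-well plates and treated with compound for 48 hours. The concentration for full growth arrest is given as TGI.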 A value given as a limit tells only on which side of the number the result lay.

Consider `COc1ccc(N2C(=O)C3c4[nH]c5cc(C)ccc5c4C4CCC(C(C)(C)C)CC4C3C2=O)cc1` (stereo not drawn), for which the TGI in test [1], in [2], in [3], in test [4], in test [5] and in test [6] was more than 10 µM throughout. Besides, the TGI was 6.07 µM in [7], more than 10 µM in test [8], more than 10 µM in test [9] and more than 10 µM in test [10].

`Nc1ncnc2c1ccn2C/C=C/CO`: the TGI in [1], in [2], in test [3], in test [4], in [5] and in test [6] was more than 100 µM throughout. The TGI in test [7], in test [8], in [9] and in test [10] was more than 100 µM in each case.

`Cc1ccc2c(c1)c1ccc3c(c1n2C)C(=O)C=CC3=O`: the TGI in test [1] is 8.66 µM; in test [2], more than 10 µM; in [3], 4.54 µM; in test [4], 5.15 µM; in [5] it was more than 7.53 µM; in test [6], more than 10 µM. For the same compound, the TGI is more than 10 µM in [7], 3.76 µM in test [8], 9.48 µM in test [9] and 3.17 µM in test [10].

Take `Cc1ccnc(NC(=S)Nc2ccc([N+](=O)[O-])cc2)c1`: the TGI in test [1] was 94.8 µM; in [2], more than 100 µM; in [3], more than 100 µM; in [4] it was more than 100 µM; in test [5] it was more than 100 µM; in test [7], more than 100 µM. In addition, the TGI in test [8], in test [9] and in [10] was more than 100 µM throughout.

As to `Cc1c2c(c(C)n1-c1ccccc1)C(=O)N(CCN1CCN(c3cccc(C(F)(F)F)c3)CC1)C2=O`, the TGI in test [1], in test [2], in test [3], in [4], in test [5] and in test [6] was more than 100 µM throughout. Further, the TGI in [7], in test [8], in [9] and in [10] was more than 100 µM each time.

For the compound `COC(=O)c1ccccc1CC1Cc2cccc(C)c2C1=O` (stereo not drawn), the TGI in test [1] was more than 100 µM; in test [2] it was more than 100 µM; in test [3], more than 100 µM; in test [4] it was 50.8 µM; in test [5], more than 100 µM; in test [6], more than 100 µM. The TGI was 86.8 µM in test [7], 71.1 µM in test [8], 98.1 µM in test [9] and 67.2 µM in test [10].

With `O=[N+]([O-])c1cc2oc(CSc3ccccc3)nc2cc1Cl`, the TGI is more than 100 µM in test [1]; more than 100 µM in test [2]; more than 100 µM in test [3]; more than 100 µM in test [4]; 40 µM in test [5]; more than 100 µM in [6]. The TGI in test [7] is 67.5 µM; in [8], more than 100 µM; in test [9] it was more than 100 µM; in [10], 87.3 µM.

On to `CSc1nc2c(c(N(C)C)n1)C(O)n1c(nc3ccccc31)S2` (stereo not drawn), for which the TGI in test [1] is more than 70.8 µM; in [2], more than 100 µM; in [3] it was more than 100 µM; in test [4] it was more than 100 µM; in [5], more than 100 µM; in test [6], more than 100 µM. Moreover, the TGI in test [7] is 74.2 µM; in test [8], more than 100 µM; in test [9], more than 100 µM; in [10], more than 100 µM.

Take `Clc1ccc(C=NC23CC4CC(CC(C4)C2)C3)c(Cl)c1`: the TGI in test [1], in test [2], in test [3], in test [4], in [5] and in test [6] was more than 10 µM in each case. Also, the TGI in [7], in test [8] and in [9] was more than 10 µM in each case.

Take `CC(C)N1CCN(c2ccc(OCC3COC(Cn4cncn4)(c4ccc(Cl)cc4Cl)O3)cc2)CC1` (stereo not drawn): the TGI in test [1] was 31 µM; in test [2], 33.6 µM; in test [3], more than 20 µM; in test [4], 15.8 µM; in [5], 54.9 µM; in test [6] it was 29.8 µM. Also, the TGI is 27.5 µM in test [7], 26.1 µM in test [8], 5.66 µM in test [9] and more than 42.5 µM in test [10].

Consider `CN1CCN(Cc2cc3c(nn2)-c2ccccc2C3=O)CC1`, for which the TGI in test [1] was more than 100 µM; in [2] it was more than 100 µM; in test [3], more than 100 µM; in [4] it was 50.2 µM; in [5], more than 100 µM; in test [6], more than 100 µM. In addition, the TGI in [7], in test [8], in [9] and in test [10] was more than 100 µM each time.

On to `O=C(CC(=O)Nc1ccccc1)NNC(Sc1ccccc1)c1cc(N=Nc2ccc(Br)cc2)ccc1O` (stereo not drawn), for which the TGI in test [1] is more than 10 µM; in [2], more than 10 µM; in test [3], 3.47 µM; in test [4], more than 10 µM; in [5], more than 10 µM; in test [6], more than 10 µM. In addition, the TGI in test [7] is more than 10 µM; in [8], more than 10 µM; in test [9], 9.81 µM; in [10] it was more than 10 µM.

As for `CCCCOCCOC1=C(Cl)C(=O)c2c(O)ccc(O)c2C1=O`, the TGI in test [1] came out at 5.43 µM; in [2], 2.47 µM; in test [3] it was 0.525 µM; in test [4] it was 1.07 µM; in test [5], 9.14 µM; in test [6], 2.66 µM. Further, the TGI in test [7] amounted to 2.01 µM; in test [8] it was 1.81 µM; in test [9], 2.64 µM; in test [10], 1.72 µM.
